Assay results published in patent US8887721B2, “Attenuation of vasoactive oxygen carrier-induced vasoconstriction” (The General Hospital Corporation, priority 2006, dated 2014).
Where two headings read alike, the source gives them in different places.

Columns and labels:
[1] = tested on: awake mice; assay: Tail-cuff systolic blood pressure in awake mice; type: in vivo, mouse; conditions: for tail systolic blood pressure after intravenous injection: awake wild type mice, 0.012 ml/g body weight i.v.
Procedure: The mouse was placed in a restrainer for this procedure. All mice were handled briefly and gently to inject a tetrameric hemoglobin solution into a lateral tail vein. Before injection, the tail was warmed under an infra-red heat lamp for 5 minutes to enable access to the vein. The injection volume was 0.012 ml/g body weight for each mouse. Infusion was done during the course of one minute.
With the use of volumetrically calibrated flowmeters (Cole-Parmer, Vernon Hills, Ill.), nitric oxide gas (800 ppm in nitrogen; INO Therapeutics, Clinton, […], Clinton, N.J.). The nitric oxide, nitrogen dioxide and oxygen (21%) levels were continuously monitored (INOvent delivery system, Datex-Ohmeda, Madison, Wis.).
(§1) The effects of breathing nitric oxide on systolic tail blood pressure after the infusion of murine tetrameric hemoglobin solution were monitored every 10 minutes for the 1st hour and every 20 minutes for the rest of the experiments. Blood hemoglobin and methemoglobin levels were measured every 15 minutes in the nitric oxide pretreatment group, wherein all mice breathed nitric oxide at 80 ppm for 1 hour before infusion. Hemoglobin and methemoglobin levels in whole blood and plasma were measured in additional mice after the intravenous infusion of tetrameric hemoglobin solution at 10 minutes and 60 minutes while breathing nitric oxide at 8 ppm or 80 ppm throughout the experiment.
Systolic blood pressure was measured with a non-invasive tail-cuff machine (XBP 1000, Kent Scientific, Torrington, Conn.) in wild type mice and NOS3^−/− mice. Mice were first subjected to one or two practice sessions to acclimate them to the device. The mouse was placed in a restrainer for a short period of time (<1 minute to start), then kept in the restrainer for longer times to acclimate to the device. The degree of acclimatization was judged by the absence of agitation in the device. After a few days of practice sessions, mice were restrained in a commercial mouse restraint device (Kent Scientific, Torrington, Conn.). […]
All values are expressed as mean±SEM. Data were analyzed using ANOVA. The difference in hemodynamic parameters before and after infusion of murine tetrameric hemoglobin or nitric oxide inhalation was examined by a paired t-test for repeated measurements. P values less than 0.05 were considered significant (as indicated by a * in the figures).

[2] = tested on: awake lambs; type: in vivo, lamb
From the text: Lambs were briefly anesthetized, given a tracheostomy, the internal jugular vein was percutaneously catheterized and a flow directed Swan Ganz catheter passed into the pulmonary artery to permit measurements of central hemodynamics and cardiac output by thermaldilution. An arterial line was placed in the carotid artery. Animals were allowed several hours to awaken from anesthesia and were studied awake and restrained in a harness. Three groups of lambs were studied: (1) “autologous whole blood” animals donated autologous blood, which was stored with heparin anti-coagulation at 4° C.—two days later they received an infusion of their 37° C. autologous whole blood (12 ml/kg over 20 minutes) while breathing at FiO2=0.3 (n=3); (2) “HBOC-201” animals received an infusion of HBOC-201 (12 ml/kg over 20 minutes) while breathing at FiO2=0.3 (n=3); and (3) “HBOC-201 after iNO” animals inhaled 80 ppm nitric oxide at FiO2=0.3 for one hour before receiving an infusion of HBOC-201 (12 ml/kg over 20 minutes) (n=5). Systemic vascular resistance (SVR) and pulmonary vascular resistance (PVR) were calculated using standard formulae as follows: [SVR ([…])=(MAP−CVP)/CO*79.96]; and [PVR ([…])=(PAP−PCWP)/CI*79.96].
(1) “Autologous whole blood” animals received an infusion of 37° C. autologous whole blood (12 ml/kg over 20 minutes) while breathing at FiO2=0.3 (n=3); (2) “HBOC-201” animals received an infusion of 37° C. HBOC-201 (12 ml/kg over 20 minutes) while breathing at FiO2=0.3 (n=3); and (3) “HBOC-201 after high and low dose iNO” animals inhaled 80 ppm nitric oxide at FiO2=0.3 for one hour before receiving an infusion of HBOC-201 (12 ml/kg over 20 minutes), which was followed by breathing 5 ppm nitric oxide at FiO2=0.3 for two hours, which was followed by breathing at FiO2=0.3 (and discontinued inhalation of nitric oxide gas) for another one hour (n=4).

[3] = tested on: anesthetized wild type and NOS3−/− mice; assay: Invasive hemodynamic measurements in anesthetized mice; type: in vivo, mouse; conditions: for CO (cardiac output) / CVP (central venous pressure) / Ea (arterial elastance) / HR (heart rate) / LVEDP (left ventricular end-diastolic pressure) / LVESP (left ventricular end-systolic pressure) / SVR (systemic vascular resistance) / Tau (time constant of isovolumic relaxation) / dP/dtmax (maximum rate of developed left ventricular pressure) / dP/dtmin (minimum rate of developed left ventricular pressure): mean ± SEM
Procedure: To explore the mechanisms by which infusion of tetrameric hemoglobin causes systemic hypertension in awake wild type mice, invasive hemodynamic measurements were performed in anesthetized wild type and NOS3^−/− mice before and three minutes after infusion of murine tetrameric hemoglobin or whole murine blood as a control. Mice were anesthetized with an intraperitoneal injection of ketamine (100 mg/kg) and xylazine (5 mg/kg). Muscle relaxation was obtained by adding pancuronium (5 μg/g) after tracheal intubation. […] Two saline-filled PE-10 catheters were inserted separately via the jugular veins; one for monitoring central venous pressure (CVP) and the other for infusion of whole blood or tetrameric hemoglobin solution. A Millar pressure-volume catheter was inserted retrograde via the right carotid artery into the left ventricle (1.4F, model SPR839, Millar Instruments Inc., Houston, Tex.). After obtaining stable hemodynamic measurements, whole blood (1.44 g Hb/kg) or murine tetrameric Hb solution (0.48 g/kg) was infused through the jugular vein, at a rate of 100 μl/min for 3 min. PVAN software was used to analyze left ventricular pressure-volume loop data (Conductance Technologies Inc., San Antonio, Tex.).

[4] = molecular target: T1, plasma hemoglobin (Mus musculus, UniProt P01942+P02088); type: in vivo
T1 construct: The blood was frozen and thawed three times and then centrifuged; from tissue; host or cells: whole blood of wild type C57BL/6 mice (hemolysate, filtered, dialysed, concentrated)
Procedure: Hemoglobin and methemoglobin concentration in whole blood and plasma were determined by the cyanomethemoglobin method measuring OD at 540 nm and 630 nm with a Spectrophotometer-Biomate 3 (Thermoelectron Corporation, Waltham, Mass.).
as §1

[5] = molecular target: plasma hemoglobin (Bos taurus, UniProt P01966+P02070); assay: Plasma methemoglobin concentration in awake lambs; type: in vivo, lamb
From the text: Lambs were briefly anesthetized, given a tracheostomy, the internal jugular vein was percutaneously catheterized and a flow directed Swan Ganz catheter passed into the pulmonary artery to permit measurements of central hemodynamics and cardiac output by thermaldilution. An arterial line was placed in the carotid artery. Animals were allowed several hours to awaken from anesthesia and were studied awake and restrained in a harness. […] Systemic vascular resistance (SVR) and pulmonary vascular resistance (PVR) were calculated using standard formulae as follows: [SVR ([…])=(MAP−CVP)/CO*79.96]; and [PVR ([…])=(PAP−PCWP)/CI*79.96].
Methemoglobin concentration in plasma was measured before and after breathing 80 ppm nitric oxide for one hour (and before and after infusion of autologous whole blood or HBOC-201). […]
Plasma methemoglobin concentration was measured before and after breathing nitric oxide at various concentrations (and before and after infusion of autologous whole blood or HBOC-201).

[6] = lambs breathing 80 ppm nitric oxide for one hour before HBOC-201, terminated immediately before infusion
[7] = lambs: 80 ppm nitric oxide one hour before HBOC-201, then 5 ppm after the infusion
[8] = NOS3−/− mice breathing air, three minutes after infusion
[9] = WT mice breathing air, three minutes after infusion
[10] = WT ± iNO: WT mice breathing 80 ppm NO in air for 15 min, NO discontinued, then infusion

T1 sequence (P01942 2-142 limits assumed): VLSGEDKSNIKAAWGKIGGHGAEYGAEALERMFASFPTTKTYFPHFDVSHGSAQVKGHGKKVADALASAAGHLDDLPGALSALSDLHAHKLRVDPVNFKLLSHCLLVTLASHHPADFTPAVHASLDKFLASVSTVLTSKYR
T1 sequence (P02088 2-147 limits assumed): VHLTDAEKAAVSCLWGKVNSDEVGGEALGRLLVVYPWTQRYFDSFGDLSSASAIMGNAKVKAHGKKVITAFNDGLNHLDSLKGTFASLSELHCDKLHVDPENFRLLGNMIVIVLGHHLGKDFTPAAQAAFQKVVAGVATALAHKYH
Sequence of plasma hemoglobin (Bos taurus, UniProt P01966+P02070) (P01966 2-142 limits assumed): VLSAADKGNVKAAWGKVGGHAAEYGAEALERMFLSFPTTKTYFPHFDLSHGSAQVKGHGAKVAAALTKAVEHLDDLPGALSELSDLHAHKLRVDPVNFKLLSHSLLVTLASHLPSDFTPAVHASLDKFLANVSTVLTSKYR
Sequence of plasma hemoglobin (Bos taurus, UniProt P01966+P02070) (P02070 whole entry): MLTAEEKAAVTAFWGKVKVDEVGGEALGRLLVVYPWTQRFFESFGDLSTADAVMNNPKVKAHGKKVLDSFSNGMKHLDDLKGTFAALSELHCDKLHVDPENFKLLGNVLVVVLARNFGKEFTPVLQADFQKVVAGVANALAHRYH

[N]=O [nitric oxide]
hemoglobin-induced elevation in systolic blood pressure ([1]; wild type mice breathing 80 ppm nitric oxide continuously before and subsequent to infusion of murine tetrameric hemoglobin solution): prevented a hemoglobin-induced elevation in systolic blood pressure | hemoglobin-induced elevation in systolic blood pressure ([1]; wild type mice breathing 80 ppm nitric oxide for 15 minutes before infusion, terminated at infusion): prevented a hemoglobin-induced elevation in systolic blood pressure | hemoglobin-induced elevation in systolic blood pressure ([1]; wild type mice breathing 80 ppm nitric oxide for one hour before infusion, terminated at infusion): prevented a hemoglobin-induced elevation in systolic blood pressure | hemoglobin-induced elevation in systolic blood pressure ([1]; wild type mice breathing 200 ppm nitric oxide for 7 minutes before infusion, terminated at infusion): prevented a hemoglobin-induced elevation in systolic blood pressure | pulmonary hypertension after inhalation of 5 ppm nitric oxide was abruptly discontinued ([2]; lambs administered HBOC-201): rebounded | increase in mean arterial pressure after HBOC-201 infusion [2, 6]: blocked the increase | increase in pulmonary arterial pressure after HBOC-201 infusion [2, 6]: did not block the increase | increase in pulmonary vascular resistance after HBOC-201 infusion [2, 6]: did not block the increase | increase in systemic vascular resistance after HBOC-201 infusion [2, 6]: blocked the increase | increase in mean arterial pressure after HBOC-201 infusion [2, 7]: blocked the increase | increase in pulmonary arterial pressure after HBOC-201 infusion [2, 7]: blocked the increase | increase in pulmonary vascular resistance after HBOC-201 infusion [2, 7]: blocked the increase | increase in systemic vascular resistance after HBOC-201 infusion [2, 7]: blocked the increase | increase of LVESP, LVEDP, SVR, Ea and τ induced by murine tetrameric hemoglobin infusion ([3]; wild type mice pretreated with inhaled nitric oxide at 80 ppm for 15 minutes): abolished the increase of LVESP, LVEDP, SVR, Ea, and τ | conversion of plasma hemoglobin to methemoglobin ([4]; wild type mice breathing 80 ppm nitric oxide for one hour before infusion of murine tetrameric hemoglobin solution, terminated at infusion): < 5% | conversion of plasma hemoglobin to methemoglobin ([4]; wild type mice breathing 80 ppm nitric oxide while given murine tetrameric hemoglobin solution, 10 and 60 minutes after injection): conversion of a significant proportion of plasma hemoglobin to inactive methemoglobin | plasma methemoglobin compared to lambs that received HBOC-201 without nitric oxide ([5]; 80 ppm nitric oxide for one hour before HBOC-201, terminated at infusion): did not result in an increase in plasma methemoglobin | plasma methemoglobin compared to animals that received HBOC-201 without nitric oxide ([5]; 80 ppm nitric oxide one hour before HBOC-201, then 5 ppm after the infusion): did not result in an increase in plasma methemoglobin

O=NO [sodium nitrite, Sodium nitrite]
systemic hypertension caused by subsequent infusion of murine tetrameric hemoglobin ([1]; awake mice, 48 nmol sodium nitrite i.v. five minutes before hemoglobin (0.48 g/kg)): blocked the systemic hypertension | blood pressure before murine tetrameric hemoglobin was infused ([1]; awake mice, 48 nmol sodium nitrite via tail vein): did not alter blood pressure | plasma methemoglobin level ([4]; mouse, in vivo): 10±2%

HBOC-201: a chemically cross-linked bovine hemoglobin formulated in a salt solution; Biopure
mean arterial pressure after infusion ([2]; in vivo): increase | pulmonary arterial pressure after infusion ([2]; in vivo): increase | pulmonary vascular resistance after infusion ([2]; in vivo): increase | systemic vascular resistance after infusion ([2]; in vivo): increase

Tetrameric Hb: tetrameric hemoglobin solution (4 g/dl) prepared from lysed whole blood of wild type C57BL/6 mice
tail systolic blood pressure after intravenous injection [1]: significant increase in systolic blood pressure | tail systolic blood pressure after intravenous injection ([1]; listed as murine tetrameric hemoglobin solution): significant elevation in blood pressure | systemic blood pressure after infusion ([1]; solution containing 14.5% methemoglobin): caused systemic hypertension | CO (cardiac output) [3, 8]: 9 ± 1 mL/min | CVP (central venous pressure) [3, 8]: 4 ± 0 mmHg | Ea (arterial elastance) [3, 8]: 8 ± 1 mmHg/μl | HR (heart rate) [3, 8]: 553 ± 18 bpm | LVEDP (left ventricular end-diastolic pressure) [3, 8]: 8 ± 2 mmHg | LVESP (left ventricular end-systolic pressure) [3, 8]: 117 ± 5 mmHg | SVR (systemic vascular resistance) [3, 8]: 15 ± 2 dynes*sec/cm^2 | Tau (time constant of isovolumic relaxation) [3, 8]: 6 ± 1 ms | dP/dtmax (maximum rate of developed left ventricular pressure) [3, 8]: 13736 ± 606 mmHg/s | dP/dtmin (minimum rate of developed left ventricular pressure) [3, 8]: −12290 ± 620 mmHg/s | CO (cardiac output) [3, 9]: 10 ± 1 mL/min | CVP (central venous pressure) [3, 9]: 3 ± 0 mmHg | Ea (arterial elastance) [3, 9]: 9 ± 1 mmHg/μl | HR (heart rate) [3, 9]: 602 ± 12 bpm | LVEDP (left ventricular end-diastolic pressure) [3, 9]: 12 ± 1 mmHg | LVESP (left ventricular end-systolic pressure) [3, 9]: 158 ± 5 mmHg | SVR (systemic vascular resistance) [3, 9]: 16 ± 1 dynes*sec/cm^2 | Tau (time constant of isovolumic relaxation) [3, 9]: 8 ± 1 ms | dP/dtmax (maximum rate of developed left ventricular pressure) [3, 9]: 12260 ± 750 mmHg/s | dP/dtmin (minimum rate of developed left ventricular pressure) [3, 9]: −10110 ± 640 mmHg/s | CO (cardiac output) [3, 10]: 12 ± 1 mL/min | CVP (central venous pressure) [3, 10]: 4 ± 0 mmHg | Ea (arterial elastance) [3, 10]: 5 ± 0 mmHg/μl | HR (heart rate) [3, 10]: 603 ± 20 bpm | LVEDP (left ventricular end-diastolic pressure) [3, 10]: 6 ± 1 mmHg | LVESP (left ventricular end-systolic pressure) [3, 10]: 101 ± 4 mmHg | SVR (systemic vascular resistance) [3, 10]: 8 ± 1 dynes*sec/cm^2 | Tau (time constant of isovolumic relaxation) [3, 10]: 5 ± 0 ms | dP/dtmax (maximum rate of developed left ventricular pressure) [3, 10]: 11230 ± 750 mmHg/s | dP/dtmin (minimum rate of developed left ventricular pressure) [3, 10]: −10650 ± 430 mmHg/s | effect of infusion on invasive hemodynamic parameters ([3]; anesthetized NOS3−/− mice): did not alter HR, LVESP, LVEDP, CO, dP/dtmax, dP/dtmin, SVR, Ea, τ, or CVP | effect of infusion on invasive hemodynamic parameters ([3]; anesthetized wild type mice): increased LVESP, LVEDP, SVR, Ea, and τ and decreased CO without affecting dP/dtmax, dP/dtmin, or CVP
